System: 6-OHDA lesioned rats (striatum)
Assay: Experiment 1 online microdialysis in anesthetized rats (baseline, NSD-1015, NSD+TMP)
Format: in vivo, rat
Experimental: The second microdialysis protocol in Experiment 1 (identical microdialysis methods and protocols were used in the pilot study) was performed in anaesthetized animals was performed in TH+DD-GCH1 treated animals that received oral TMP administration in their drinking water at least 2 weeks prior sampling; either 0.5 mg/ml (n=4) or 2 mg/ml (n=5) (same TMP emulsion that was administered to the animals followed with behavior tests). In addition, this experiment also included animals from the TH+GCH1 (n=3), Les-Sham (n=2) and intact control (n=3) groups. Probe placement was calculated to position the membrane of the probe in the center of the transduction area in striatum, which corresponded to the coordinates: AP: +0.5 mm; ML: −3.7 mm and DV: −5.7 mm with the tooth bar set to −2.4 mm. […] Samples were analyzed readily as described for the first microdialysis experiment. After the last sample was collected the animal was terminated and brain tissue taken for histology.

## COc1cc(Cc2cnc(N)nc2N)cc(OC)c1OC [TMP, trimethoprim]
0.5 and 2.0 mg/ml TMP in drinking water, TH+DD-GCH1 treated rats
  biochemical reconstitution with oral TMP: both were effective in reaching a similar biochemical reconstitution
2E-5 M TMP lactate plus NSD-1015 via probe for 2 h, after 2 weeks oral TMP
  DOPA levels after addition of TMP to the ringer solution: did not further increase the DOPA levels
